The values that follow come from patent US20090220435A1, “TIGHT JUNCTION MODULATING PEPTIDE COMPONENTS FOR ENHANCING MUCOSAL DELIVERY OF THERAPEUTIC AGENTS” (priority 2005, published 2009).

The subject of series [1] is EpiAirway™ human-derived tracheal/bronchial epithelial cells. Briefly: Transepithelial electrical resistance (TER) across EpiAirway epithelial cell layer. It counts as cell-based.
Series [2] has the same test system. Briefly: TER recovery after peptide treatment. It is filed as cell-based. Conditions: among all TJMPs tested.
The test system is the same in series [3]. Description: Cytotoxicity (LDH assay). It is filed as cell-based. To be noted: for LDH15: 15 minute treatment at the peptide's optimal concentration; for LDH60: 60 minute treatment at the peptide's optimal concentration. How it is done: The amount of cell death was assayed by measuring the loss of lactate dehydrogenase (LDH) from the cells using a CytoTox 96 Cytoxicity Assay Kit (Promega Corp., Madison, Wis.). Fifty microliters of sample was loaded into a 96-well assay plates. Fresh, cell-free culture medium was used as a blank. 50 μl of substrate solution was added to each well and the plates incubated for 30 minutes at room temperature in the dark. Following incubation, 50 μl of stop solution was added to each well and the plates read on an optical density plate reader at 490 nm.
The amount of cell death will be assayed by measuring the loss of lactate dehydrogenase (LDH) from the cells using a CytoTox 96 Cytotoxicity Assay Kit (Promega Corp., Madison, Wis.). Fifty microliters of sample will be loaded into a 96-well assay plates. Fresh, cell-free culture medium will be used as a blank. Fifty microliters of substrate solution will be added to each well and the plates incubated for 30 minutes at room temperature in the dark. Following incubation, 50 μl of stop solution will be added to each well and the plates read on an optical density plate reader at 490 nm. The measurement of LDH release into the basolateral media indicates relative cytotoxicity of the samples. One hundred percent lysis of control inserts with 0.3% Octylphenolpoly(ethyleneglycolether)×(TritonX-100) allows LDH values to be expressed as percentage of total lysis.
In some embodiments, The amount of cell death was assayed by measuring the release of lactate dehydrogenase (LDH) from the cells into the apical medium using a CytoTox 96 Cytotoxicity Assay Kit (Promega Corp., Madison, Wis.). One percent Octylphenolpoly (ethyleneglycolether)×(Triton X-100™) diluted in phosphate buffered saline (PBS) causes 100% lysis in cultured cells and served herein as a positive control for the LDH assay. Following the one hour incubation period with a test formulation (refer to Table 24 of Example 25 for details of test formulations), the total liquid volume of each insert was brought to a final volume of 200 μl with culture medium. The apical medium was then mixed by pipetting four times with a multichannel pipette set to a 100 μl volume. After mixing, a 100 μl sample from the apical side of each insert was transferred to a new 96-well plate. The apical media samples were sealed with a plate sealer and stored at room temperature for same day analysis or stored overnight at 4° C. for analysis the next day. To measure LDH levels, 5 μl of the 100 μl apical media sample was diluted in 45 μl DPBS in a new 96-well plate. Fresh, cell-free culture medium will be used as a blank. Fifty microliters of substrate solution was added to each well and incubated for 30 minutes at room temperature away from direct light. Following the 30 minute incubation, 50 μl of stop solution was added to each well. Optical density (OD) was measured at 490 nm with a uQuant absorbance plate reader from Biotek Instruments. The measurement of LDH release into the apical media indicates relative cytotoxicity of the samples. Percent cytotoxicity for each test formulation was calculated by subtracting the measured absorbance of the PBS control (basal level of LDH release) from the measured absorbance of the individual test formulation and then dividing that value by the measured absorbance for the 1% Triton X-100™ positive control, multiplied by 100.
An LDH assay was used to assess the cytotoxicity of the treatments. The LDH level was determined by CytoTox96 Non-Radioactive Cytotoxic Assay (Promega, Madison, Wis.) following the manufacturer's protocol. For basal-lateral LDH levels, triplicates of 50 ul of the basal medium were used to determine the LDH level. For apical LDH level, 150 ul of the diluted apical sample was removed by adding 150 ul of Epi-CM to the apical chamber, the medium was mixed by pipeting up and down, and 150 ul medium was removed and diluted 2× (for a final 8-fold dilution) for assay in triplicates of 50 ul.

A short description of series [4]: Chemical stability of PN159 (stability indicating HPLC). It counts as physicochemical. Conditions: pH 9 and/or elevated temperature, 40 to 50° C. How it is done:
The chemical stability of the PN159 was determined under therapeutically relevant storage conditions. A stability indicating HPLC method was employed. Solutions (50 mM) were stored at various pH (4.0, 7.3, and 9.0) and temperature (5° C., 25° C., 35° C., 40° C., and 50° C.) conditions. Samples at pH 4 contained 10 mM citrate buffer. Samples at pH 7.3 and 9.0 contained 10 mM phosphate buffer. Representative storage stability data (including the Arrhenius plot) are depicted in FIG. 6. […] For example, at 5° C. and pH 4.0 or pH7.3, there was essentially 100% recovery of PN159 for six month storage. […] The pH range of 4.0 to 7.3 and the temperature range of refrigerated to ambient are most relevant for intranasal formulations.
The chemical stability of the PN159 was determined under therapeutically relevant storage conditions. A stability indicating HPLC method was employed. Solutions (50 mM) were stored at various pH (4.0, 7.3, and 9.0) and temperature (5° C., 25° C., 35° C., 40° C., and 50° C.) conditions. Samples at pH 4 contained 10 mM citrate buffer. Samples at pH 7.3 and 9.0 contained 10 mM phosphate buffer. […] For example, at 5° C. and pH 4.0 or pH 7.3, there was essentially 100% recovery of PN159 for six month storage. […]
The chemical stability of the PN159 was determined under therapeutically relevant storage conditions. […]

“H-RRRQRRKRGGDIMGEWGNEIFGAIAGFLG-NH2 [PN250]”: the TER reduction in series [1] (10 μM peptide) stood at 3%; in series [1] (25 μM peptide), 17%; in series [1] (100 μM peptide) it was 58%; in series [1] (250 μM peptide), 79%; in series [1] (500 μM peptide), 84%. Also, the TER recovery time entry in series [2] was “fastest recovery time”. The LDH15 in series [3] was determined as 0.0016. In series [3], this molecule showed an LDH60 of 0.031.
As to “H-LLETLLKPFQCRICMRNFSTRQARRNHRRRHRR-NH2 (cysteine pairing not given here) [PN202]”, the TER reduction in series [1] (10 μM peptide) stood at 3%; in series [1] (50 μM peptide), 57%; in series [1] (100 μM peptide), 95%; in series [1] (500 μM peptide) it was 95%. The TER recovery time entry in series [2] was “fastest recovery time”. The same molecule gave an LDH15 in series [3] of 0.0011. This molecule had an LDH60 in series [3] of 0.02.
As for `CC(C)C[C@H](NC(=O)[C@H](C)NC(=O)[C@H](CCCCN)NC(=O)[C@H](CC(C)C)NC(=O)[C@H](C)NC(=O)[C@H](CC(C)C)NC(=O)[C@H](CCCCN)NC(=O)[C@H](CC(C)C)NC(=O)[C@H](C)NC(=O)[C@H](CC(C)C)NC(=O)[C@@H](N)CCCCN)C(=O)N[C@@H](CCCCN)C(=O)N[C@@H](C)C(=O)N[C@@H](C)C(=O)N[C@@H](CC(C)C)C(=O)N[C@@H](CCCCN)C(=O)N[C@@H](CC(C)C)C(=O)N[C@@H](C)C(N)=O` [PN159], the TER reduction in series [1] (1 μM peptide) is listed as 54%; in series [1] (2.5 μM peptide) it was 79%; in series [1] (10 μM peptide) it was 89%; in series [1] (25 μM peptide) it was 94%; in series [1] (PN159 25, 50, 100 μM with 2 mg/ml PTH, pH 4.5), “more than 80%”. Moreover, in series [1] (25 μM, 1 h, pH 7), the “% T0 TER” value is on record as 7%. Moreover, in series [1] (40 mg/ml galantamine lactate, 25, 50, 100 μM PN159, pH 5.0), the “TER in the presence of galantamine” value is “reduced TER”. The “Relative TER Decrease” value in series [1] (relative to PN159 = 1.0) is listed as 1.0. Further, in series [3] (25 μM, 1 h), the “% Triton-X LDH Release” value turned out to be 31%. The “cytotoxicity (LDH)” value in series [3] (25-100 μM PN159 with 2 mg/ml PTH) was “no significant cytotoxicity”. The LDH15 in series [3] amounted to 0.007. This molecule yielded an LDH60 in series [3] of 0.002. In series [4], the chemical stability result is reported as “rapid deterioration”.
Consider `CC[C@H](C)[C@H](NC(=O)[C@H](CCCCN)NC(=O)[C@H](CCCCN)NC(=O)[C@H](C)NC(=O)[C@H](CC(C)C)NC(=O)[C@H](C)NC(=O)[C@H](C)NC(=O)[C@H](CC(C)C)NC(=O)[C@H](C)NC(=O)[C@H](CCCCN)NC(=O)[C@H](CC(C)C)NC(=O)[C@H](CC(N)=O)NC(=O)[C@@H](NC(=O)[C@H](CCCCN)NC(=O)CNC(=O)[C@H](CC(C)C)NC(=O)[C@H](CC(C)C)NC(=O)[C@H](Cc1ccc(O)cc1)NC(=O)CNC(=O)[C@H](C)NC(=O)[C@H](CO)NC(=O)[C@H](CC(N)=O)NC(=O)[C@H](CC(C)C)NC(=O)[C@@H](NC(=O)[C@H](Cc1c[nH]c2ccccc12)NC(=O)CN)[C@@H](C)O)[C@@H](C)CC)C(=O)N[C@@H](CC(C)C)C(N)=O` [PN161], for which the TER reduction came to 11% in series [1] (2.5 μM peptide), 43% in series [1] (10 μM peptide), 73% in series [1] (25 μM peptide) and 84% in series [1] (100 μM peptide). Also, the TER recovery time entry in series [2] is on record as “fastest recovery time”. The molecule also showed an LDH15 in series [3] of 0.0017. This molecule had an LDH60 in series [3] of 0.01.
